Data: patent publication US20230255904A1, “PHARMACEUTICAL COMPOSITION FOR PREVENTING OR TREATING CANCER COMPRISING NAPHTHOQUINONE-BASED COMPOUND AND IMMUNE CHECKPOINT INHIBITOR AS ACTIVE INGREDIENTS” (NADIANBIO LTD., priority 2020, published 2023)

How the values were obtained:
calreticulin (ecto-CRT) = assay: Immunogenic cell death analysis: calreticulin on the surface of tumor cells by flow cytometry; assay type: cell-based; conditions: compared to the control
Method: Calreticulin is one of the most important molecules in the immunogenic cell death process. When the calreticulin appears on membranes of tumor cell, a strong signal for phagocytotic cells including dendritic cells may be generated to cause the phagocytotic cells to attack dying tumor cells. This is the most significant “eat me” signal for immune cells. Whether or not immunogenic cell death was induced by the anticancer agents used in the present invention was assessed through the quantitative change of calreticulin expressed on the surface of cancer cells after the treatment with the anticancer agents. Single cells isolated from the tumor were incubated with anti-calreticulin antibody (ratio of 1:50) as a primary antibody at 4° C. for 30 minutes, and then washed 2 times with PBS.

MC38 = assay: Tumor growth inhibition, animal model for colorectal cancer I (MC38); assay type: in vivo, C57BL/6 mice; conditions: Experimental Example 4; Dunnione 40 mg/kg oral every day from 7th day; Anti-LAG3 antibody 200 μg/head i.p. on 7th, 10th, 14th, 17th days; Oxaliplatin 6 mg/kg i.p. on 7th and 14th days
Method: (§1) All mice used in the experiments were raised in a sterile animal room with constant temperature (22° C. to 26° C.) and constant humidity (55% to 60%), acclimatized for 1 week while sufficiently supplying typical solid feed (Samtako Inc., Korea) and water, and then used. All experiments were conducted after obtaining approval from the Institutional Animal Care and Use Committee in accordance with the laboratory animal care and ethics regulations of the Institutional Animal Care and Use Committee of Wonkwang University.
(§2) 7-week-old BALB/c or C57BL/6 mice were used, and subcutaneously inoculated using a 1-mL insulin syringe within 30 minutes after mixing the mouse cancer cells with 0.2 mL of PBS.
(§3) After the cancer cell line was subcutaneously implanted, the administration of drugs was started when the size of the cancer reached 50 to 100 mm^3. The volumes (mm^3) of the tumors, which were generated after the inoculation, were measured at intervals of 3 days using a caliper, calculation was performed using the formula of […], and then the results thereof were compared.
(§4) In addition, sole administration or co-administration of respective drugs was performed according to the administration schedules listed in Tables 4 to 34 below, the tumor volumes were then measured according to the tumor proliferation assessment method described in Example 1.1, the tumor growth inhibition rates (TGI (O)=(Vc−Vt)/Vc×100(%); Vc: tumor volume of control, Vt tumor volume of experimental group) were calculated based the tumor volumes, and the results thereof are shown in the respective tables and FIGS. 1 to 31.

RENCA = assay: Tumor growth inhibition, animal model for renal cancer (RENCA); assay type: in vivo, BALB/c mice; conditions: Dunnione 40 mg/kg oral every day from 7th day
Method: as §1, §2, §3, §4

B16F10 = assay: Tumor growth inhibition, animal model for skin cancer (B16F10); assay type: in vivo,  mice; conditions: Experimental Example 26; Dunnione 40 mg/kg oral every day from 8th day; Everolimus 0.5 mg/kg oral every day from 8th day
Method: as §1, §2, §3, §4

4T1 = assay: Tumor growth inhibition, animal model for breast cancer I (4T1); assay type: in vivo, BALB/c mice; conditions: Experimental Example 10; Dunnione 40 mg/kg oral every day from 5th day; Anti-CTLA4 antibody 200 μg/head i.p. at intervals of 3 days from 5th day, 4 times; Mitoxantrone 6 mg/kg i.p. once on 5th day
Method: as §1, §2, §3, §4

Compound: CCN1CCN(Cc2ccc(Nc3ncc(F)c(-c4cc(F)c5nc(C)n(C(C)C)c5c4)n3)nc2)CC1 [Abemaciclib]
- Expression rate (%) of calreticulin on cell surface (calreticulin (ecto-CRT); Breast cancer, EMT6): 263%

Compound: O=C1[O][Pt]2([NH][C@@H]3CCCC[C@H]3[NH]2)[O]C1=O [Oxaliplatin, reference compound]
- TGI (%) (MC38): 5.6%

Compound: CNC(=O)c1cccc(-c2ccc3c(N4CCOC[C@@H]4C)nc(N4CCOC[C@@H]4C)nc3n2)c1 [Vistusertib]
- Expression rate (%) of calreticulin on cell surface (calreticulin (ecto-CRT); Colorectal cancer, MC38): 175%
- Expression rate (%) of calreticulin on cell surface (calreticulin (ecto-CRT); Renal cancer, RENCA): 341%
- Expression rate (%) of calreticulin on cell surface (calreticulin (ecto-CRT); Skin cancer (melanoma), B16F10): 145%

Compound: CO[C@H]1C[C@@H]2CC[C@@H](C)[C@@](O)(O2)C(=O)C(=O)N2CCCC[C@H]2C(=O)O[C@H]([C@H](C)C[C@@H]2CC[C@@H](OCCO)[C@H](OC)C2)CC(=O)[C@H](C)/C=C(\C)[C@@H](O)[C@@H](OC)C(=O)[C@H](C)C[C@H](C)/C=C/C=C/C=C/1C [Everolimus, reference compound]
- Expression rate (%) of calreticulin on cell surface (calreticulin (ecto-CRT); Liver cancer, Hapa1-6): 892%
- Expression rate (%) of calreticulin on cell surface (calreticulin (ecto-CRT); Renal cancer, RENCA): 134%
- Expression rate (%) of calreticulin on cell surface (calreticulin (ecto-CRT); Skin cancer (melanoma), B16F10): 216%
- TGI (%) (RENCA; Experimental Example 15, Anti-CTLA4 antibody 200 μg/head i.p. at intervals of 3 days from 7th day, 7 times, Everolimus 250 μg/kg oral every day from 7th day): 72.8%
- TGI (%) (B16F10): 28.5%

Compound: CC(=O)O[C@H]1C(=O)[C@@]2(C)[C@H]([C@H](OC(=O)c3ccccc3)[C@]3(O)C[C@H](OC(=O)[C@H](O)[C@@H](NC(=O)c4ccccc4)c4ccccc4)C(C)=C1C3(C)C)[C@]1(OC(C)=O)CO[C@@H]1C[C@@H]2O [Paclitaxel]
- Expression rate (%) of calreticulin on cell surface (calreticulin (ecto-CRT); Skin cancer (melanoma), B16F10): 186%

Compound: CNC(=O)c1cc(Oc2ccc(NC(=O)Nc3ccc(Cl)c(C(F)(F)F)c3)c(F)c2)ccn1 [Regorafenib]
- Expression rate (%) of calreticulin on cell surface (calreticulin (ecto-CRT); Colorectal cancer, MC38): 134%
- Expression rate (%) of calreticulin on cell surface (calreticulin (ecto-CRT); Skin cancer (melanoma), B16F10): 166%

Compound: O=C1c2c(O)ccc(O)c2C(=O)c2c(NCCNCCO)ccc(NCCNCCO)c21 [Mitoxantrone, reference compound]
- Expression rate (%) of calreticulin on cell surface (calreticulin (ecto-CRT); Breast cancer, 4T1): 385%
- TGI (%) (4T1): 16.3%

Compound: COc1cccc2c1C(=O)c1c(O)c3c(c(O)c1C2=O)C[C@@](O)(C(=O)CO)C[C@@H]3O[C@H]1C[C@H](N)[C@H](O)[C@H](C)O1 [Adriamycin]
- Expression rate (%) of calreticulin on cell surface (calreticulin (ecto-CRT); Breast cancer, 4T1): 307%

Compound: CNC(=O)c1cc(Oc2ccc(NC(=O)Nc3ccc(Cl)c(C(F)(F)F)c3)cc2)ccn1 [Sorafenib, reference compound]
- Expression rate (%) of calreticulin on cell surface (calreticulin (ecto-CRT); Liver cancer, Hapa1-6): 435%
- TGI (%) (RENCA; Experimental Example 16, Sorafenib 10 mg/kg oral every day from 7th day): 29.4%
